This note sets out measurements from patent publication US9139519B2, “Organonitro thioether compounds and medical uses thereof” (EPICENTRX, INC., priority 2011, dated 2015).

The test system of one series is SCCVII tumor. Nature of the series: Anti-cancer assay: SCCVII tumor volume in C3H mice. In kind it is in vivo. As to conditions: male C3H mice with subcutaneous SCCVII tumors; 1.15 mg/mL in 5% DMSO/water, intraperitoneal, q.o.d. on Days 0, 2 and 4 (3 doses). How it is done: Mice with SCC VII tumors were treated with Compound 1, which has the following chemical structure.
The Treatment Composition was Compound 1 in a water/DMSO carrier. The Treatment Composition was prepared by dissolving 2.3 mg of Compound 1 in 0.1 mL of DMSO and mixing the resultant solution with 1.9 mL of water to provide a solution containing 1.15 mg/mL of Compound 1. The concentration of dimethylsulfoxide (DMSO) in the Treatment Composition was 5%.
Male C3H mice were obtained from Charles River Laboratories and maintained under specific pathogen-free conditions. Mice were housed five animals per cage and autoclaved food and water was provided ad libitum. Cages were located in rooms having a temperature of 65±2 degrees Fahrenheit, a humidity of 50%±5%, and a 12-hour day-and-night light cycle. Mice were 7-8 weeks old, with a body weight in the range of 22-25 grams, at the time inoculated with tumor cells.
Mice were inoculated subcutaneously with 5×10^5 SCCVII tumor cells in 0.05 mL Hank's solution on the back. […] The length and width of the tumors were measured with calipers immediately before treatment and three times a week thereafter until the tumor volume reached at least four times (4×) the original pre-treatment volume. Tumor volume (mm^3) was calculated according to the formula: Tumor Volume=π/6×length×width^2 Part II: Results

Series [1] can be described thus: Toxicity evaluation in healthy rats. To be noted: for Clinical observations: femoral vein infusion. Type of series: in vivo. How it is done:
Compound 1 was administered to healthy rats and the rats were evaluated for evidence of toxic side effects due to Compound 1. Experimental procedures and results are described below.
Two groups of 3 male rats each were given a 100 or 300 mg/kg dose of Compound 1 prepared in 0.9% saline solution. A third group of 3 rats were given saline alone. Doses were delivered via a femoral vein. The 100 mg/kg dose was delivered using a 10 mg/mL solution at a dose volume of 10 mL/kg and an infusion rate of 15 mL/hr. The 300 mg/kg dose was delivered using a 20 mg/mL solution at a dose volume of 15 mL/kg and an infusion rate of 15 mL/hr.

For the compound `N[C@@H](CSCC(=O)N1CC([N+](=O)[O-])([N+](=O)[O-])C1)C(=O)O` [Compound 1], the “Tumor volume versus untreated control” value with SCCVII tumor is “smaller than tumors in mice that did not receive the Treatment Composition”. Also, the “Toxicity (overall conclusion)” value in series [1] (healthy male rats, 100 or 300 mg/kg in 0.9% saline via femoral vein, observed for 24 hours) is recorded as “no significant toxicity was observed”. The Clinical observations entry was “No notable clinical observations” in series [1] (rats, 100 mg/kg dose, observed for 24 hours) and “pale during the first 3 hours post dose” in series [1] (rats, 300 mg/kg dose, observed for 24 hours). Besides, in series [1] (rats, 100 or 300 mg/kg, necropsy after 24 hours), the “Gross changes in the lungs at necropsy” value is on record as “no gross changes in the lungs”. For the same compound, in series [1] (rats, 100 or 300 mg/kg, necropsy after 24 hours, significance undetermined), the “Kidney observation at necropsy” value is listed as “Mottled kidneys were observed in most rats”.
